Experimental data as given in ChEMBL document CHEMBL5291721, “A preclinical secondary pharmacology resource illuminates target-adverse drug reaction associations of marketed drugs” (Nat Commun, 2023).

Columns and labels:
[1] = biological target: T1, Androgen receptor (Rattus norvegicus, UniProt P15207); assay type: functional
T1 sequence (P15207 whole entry): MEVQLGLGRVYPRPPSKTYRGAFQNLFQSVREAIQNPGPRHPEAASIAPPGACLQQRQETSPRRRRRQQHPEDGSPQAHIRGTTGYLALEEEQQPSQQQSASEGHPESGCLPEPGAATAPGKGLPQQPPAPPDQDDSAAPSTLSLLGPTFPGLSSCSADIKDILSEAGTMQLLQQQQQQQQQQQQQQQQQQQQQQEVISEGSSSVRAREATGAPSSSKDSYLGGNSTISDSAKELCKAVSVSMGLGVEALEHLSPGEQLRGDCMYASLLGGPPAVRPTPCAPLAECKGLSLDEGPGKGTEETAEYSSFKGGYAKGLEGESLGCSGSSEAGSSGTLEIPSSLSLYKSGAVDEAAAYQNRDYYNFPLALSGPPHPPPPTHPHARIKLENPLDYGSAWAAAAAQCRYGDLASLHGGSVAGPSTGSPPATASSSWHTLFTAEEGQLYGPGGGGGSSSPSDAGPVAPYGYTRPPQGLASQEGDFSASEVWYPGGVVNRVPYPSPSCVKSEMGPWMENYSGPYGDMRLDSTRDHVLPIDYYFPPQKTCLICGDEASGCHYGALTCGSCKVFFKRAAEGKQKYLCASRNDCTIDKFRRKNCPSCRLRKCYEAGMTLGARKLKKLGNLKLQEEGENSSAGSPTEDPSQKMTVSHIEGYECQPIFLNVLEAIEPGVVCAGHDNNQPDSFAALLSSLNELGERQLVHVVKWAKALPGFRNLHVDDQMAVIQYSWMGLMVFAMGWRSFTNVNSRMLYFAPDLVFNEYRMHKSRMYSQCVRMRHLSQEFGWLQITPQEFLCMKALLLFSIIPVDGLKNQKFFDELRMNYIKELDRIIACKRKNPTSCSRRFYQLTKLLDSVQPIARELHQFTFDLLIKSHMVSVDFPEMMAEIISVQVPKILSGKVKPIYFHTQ

[2] = biological target: T1, Androgen receptor
[3] = biological target: T2, B1 bradykinin receptor (Homo sapiens, UniProt P46663)
T2 sequence (P46663 whole entry): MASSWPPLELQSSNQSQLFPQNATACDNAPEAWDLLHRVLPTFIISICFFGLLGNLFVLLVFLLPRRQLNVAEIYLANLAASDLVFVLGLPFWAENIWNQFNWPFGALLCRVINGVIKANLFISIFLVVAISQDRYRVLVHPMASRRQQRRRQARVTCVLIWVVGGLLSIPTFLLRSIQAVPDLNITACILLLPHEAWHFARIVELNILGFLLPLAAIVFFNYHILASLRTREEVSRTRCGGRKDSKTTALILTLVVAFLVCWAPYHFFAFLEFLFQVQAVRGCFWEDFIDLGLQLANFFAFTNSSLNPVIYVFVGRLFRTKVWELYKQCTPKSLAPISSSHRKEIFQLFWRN

[4] = biological target: T3, Corticotropin-releasing factor receptor 2 (Homo sapiens, UniProt Q13324)
T3 sequence (Q13324 whole entry): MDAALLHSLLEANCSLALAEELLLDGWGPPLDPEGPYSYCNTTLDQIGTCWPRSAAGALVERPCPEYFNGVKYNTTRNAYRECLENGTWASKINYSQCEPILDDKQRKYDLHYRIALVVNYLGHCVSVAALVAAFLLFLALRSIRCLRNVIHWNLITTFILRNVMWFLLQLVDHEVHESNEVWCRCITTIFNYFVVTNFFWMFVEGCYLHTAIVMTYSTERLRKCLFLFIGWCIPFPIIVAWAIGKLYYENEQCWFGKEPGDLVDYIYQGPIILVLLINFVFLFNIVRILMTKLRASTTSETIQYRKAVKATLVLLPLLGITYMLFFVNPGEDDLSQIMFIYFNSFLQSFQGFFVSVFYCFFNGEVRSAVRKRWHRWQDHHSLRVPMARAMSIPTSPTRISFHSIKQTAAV

[5] = biological target: T4, Endothelin receptor type B (Homo sapiens, UniProt P24530)
T4 sequence (P24530 whole entry): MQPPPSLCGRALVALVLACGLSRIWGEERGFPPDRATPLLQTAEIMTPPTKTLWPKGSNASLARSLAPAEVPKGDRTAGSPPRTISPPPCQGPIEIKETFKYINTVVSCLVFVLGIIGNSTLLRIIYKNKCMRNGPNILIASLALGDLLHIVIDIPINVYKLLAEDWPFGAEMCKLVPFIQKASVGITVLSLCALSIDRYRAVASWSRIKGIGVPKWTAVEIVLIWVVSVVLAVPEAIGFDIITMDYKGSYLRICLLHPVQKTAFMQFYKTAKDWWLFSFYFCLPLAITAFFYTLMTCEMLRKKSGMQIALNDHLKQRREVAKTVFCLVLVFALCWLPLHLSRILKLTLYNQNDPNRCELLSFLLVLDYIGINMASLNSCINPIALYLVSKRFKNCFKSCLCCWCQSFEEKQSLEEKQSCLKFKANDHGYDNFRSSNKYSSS

[6] = biological target: Glucagon receptor (Homo sapiens, UniProt P47871)
[7] = biological target: Histamine H2 receptor (Homo sapiens, UniProt P25021)
[8] = biological target: T5, Alpha-2A adrenergic receptor (Homo sapiens, UniProt P08913)
T5 sequence (P08913 whole entry): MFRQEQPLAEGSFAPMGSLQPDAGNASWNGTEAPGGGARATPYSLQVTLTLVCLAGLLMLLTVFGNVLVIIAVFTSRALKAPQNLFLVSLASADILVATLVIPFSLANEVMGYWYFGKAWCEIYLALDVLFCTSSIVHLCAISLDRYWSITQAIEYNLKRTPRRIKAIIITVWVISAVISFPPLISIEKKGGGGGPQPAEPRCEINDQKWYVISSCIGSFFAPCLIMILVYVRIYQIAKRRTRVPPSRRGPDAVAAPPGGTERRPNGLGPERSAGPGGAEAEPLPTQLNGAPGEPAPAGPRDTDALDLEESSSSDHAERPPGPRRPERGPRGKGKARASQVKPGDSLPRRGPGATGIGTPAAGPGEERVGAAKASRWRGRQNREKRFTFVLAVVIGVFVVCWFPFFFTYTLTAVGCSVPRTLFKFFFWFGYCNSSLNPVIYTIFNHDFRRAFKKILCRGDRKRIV

[9] = biological target: Gamma-aminobutyric acid receptor subunit alpha-1/alpha-2/beta-2/gamma-2 (Homo sapiens, UniProt P14867+P18507+P47869+P47870); assay type: functional, cell-based
Note: assay procedure not described here.

Chain of Gamma-aminobutyric acid receptor subunit alpha-1/alpha-2/beta-2/gamma-2 (P14867 whole entry): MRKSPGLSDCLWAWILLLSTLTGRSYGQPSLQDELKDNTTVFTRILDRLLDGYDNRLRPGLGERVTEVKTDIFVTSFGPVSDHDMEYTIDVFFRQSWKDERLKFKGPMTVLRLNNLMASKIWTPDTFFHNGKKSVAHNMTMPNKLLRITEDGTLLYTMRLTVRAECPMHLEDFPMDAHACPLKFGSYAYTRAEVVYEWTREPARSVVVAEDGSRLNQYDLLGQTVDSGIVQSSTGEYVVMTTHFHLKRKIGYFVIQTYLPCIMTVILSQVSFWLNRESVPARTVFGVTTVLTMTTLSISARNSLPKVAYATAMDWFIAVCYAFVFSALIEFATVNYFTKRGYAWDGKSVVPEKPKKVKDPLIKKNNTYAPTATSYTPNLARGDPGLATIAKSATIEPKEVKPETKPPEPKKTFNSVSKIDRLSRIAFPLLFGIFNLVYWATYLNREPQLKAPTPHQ
Chain of Gamma-aminobutyric acid receptor subunit alpha-1/alpha-2/beta-2/gamma-2 (P47870 whole entry): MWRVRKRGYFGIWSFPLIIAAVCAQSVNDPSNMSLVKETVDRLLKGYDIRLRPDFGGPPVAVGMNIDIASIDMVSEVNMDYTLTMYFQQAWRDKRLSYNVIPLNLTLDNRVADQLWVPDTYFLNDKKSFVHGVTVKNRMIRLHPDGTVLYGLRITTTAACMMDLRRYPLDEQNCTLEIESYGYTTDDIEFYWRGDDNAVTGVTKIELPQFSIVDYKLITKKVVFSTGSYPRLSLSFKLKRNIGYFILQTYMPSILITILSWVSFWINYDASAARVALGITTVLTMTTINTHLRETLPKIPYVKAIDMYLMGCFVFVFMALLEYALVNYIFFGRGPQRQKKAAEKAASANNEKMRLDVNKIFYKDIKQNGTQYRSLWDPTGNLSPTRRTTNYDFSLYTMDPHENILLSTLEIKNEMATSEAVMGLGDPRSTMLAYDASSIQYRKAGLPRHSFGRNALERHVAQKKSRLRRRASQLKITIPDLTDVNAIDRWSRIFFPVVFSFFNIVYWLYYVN
Chain of Gamma-aminobutyric acid receptor subunit alpha-1/alpha-2/beta-2/gamma-2 (P18507 whole entry): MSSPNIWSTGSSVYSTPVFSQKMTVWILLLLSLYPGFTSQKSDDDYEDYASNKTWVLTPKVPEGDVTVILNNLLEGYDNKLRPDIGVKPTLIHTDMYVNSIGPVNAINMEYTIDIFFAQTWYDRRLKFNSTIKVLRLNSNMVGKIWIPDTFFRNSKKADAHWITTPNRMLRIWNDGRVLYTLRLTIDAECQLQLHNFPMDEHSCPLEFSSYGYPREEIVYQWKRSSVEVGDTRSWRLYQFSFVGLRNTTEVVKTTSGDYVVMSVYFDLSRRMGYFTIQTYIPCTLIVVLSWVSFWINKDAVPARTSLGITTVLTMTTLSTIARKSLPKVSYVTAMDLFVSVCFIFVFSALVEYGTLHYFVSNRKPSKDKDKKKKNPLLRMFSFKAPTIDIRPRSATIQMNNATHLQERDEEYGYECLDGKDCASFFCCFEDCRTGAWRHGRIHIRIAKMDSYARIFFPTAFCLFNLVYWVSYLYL
Chain of Gamma-aminobutyric acid receptor subunit alpha-1/alpha-2/beta-2/gamma-2 (P47869 whole entry): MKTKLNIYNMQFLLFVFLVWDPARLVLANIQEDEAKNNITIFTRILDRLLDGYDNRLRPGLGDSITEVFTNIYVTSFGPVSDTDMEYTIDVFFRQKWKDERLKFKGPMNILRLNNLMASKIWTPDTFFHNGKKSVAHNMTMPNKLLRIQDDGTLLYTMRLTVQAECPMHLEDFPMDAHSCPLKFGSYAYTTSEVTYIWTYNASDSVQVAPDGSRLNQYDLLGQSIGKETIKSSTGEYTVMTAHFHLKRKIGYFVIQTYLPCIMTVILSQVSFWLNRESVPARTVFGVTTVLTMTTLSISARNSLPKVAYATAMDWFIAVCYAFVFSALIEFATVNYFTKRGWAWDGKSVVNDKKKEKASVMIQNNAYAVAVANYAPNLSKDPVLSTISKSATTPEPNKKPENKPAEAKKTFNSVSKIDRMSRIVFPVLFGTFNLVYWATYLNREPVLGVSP
Chain of Glucagon receptor (P47871 whole entry): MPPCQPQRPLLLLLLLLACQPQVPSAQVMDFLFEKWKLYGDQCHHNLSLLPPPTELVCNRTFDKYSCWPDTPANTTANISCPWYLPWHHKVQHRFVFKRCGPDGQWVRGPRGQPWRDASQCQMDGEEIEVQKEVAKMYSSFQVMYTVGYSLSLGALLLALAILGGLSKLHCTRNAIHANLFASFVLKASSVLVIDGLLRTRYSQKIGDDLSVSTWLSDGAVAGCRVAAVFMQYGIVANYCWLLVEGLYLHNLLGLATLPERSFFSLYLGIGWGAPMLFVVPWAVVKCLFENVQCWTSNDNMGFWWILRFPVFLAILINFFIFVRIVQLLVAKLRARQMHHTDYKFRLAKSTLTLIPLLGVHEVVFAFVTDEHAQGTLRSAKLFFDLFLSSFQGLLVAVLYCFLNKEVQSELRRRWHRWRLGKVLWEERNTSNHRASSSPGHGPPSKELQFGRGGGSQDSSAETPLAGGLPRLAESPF
Chain of Histamine H2 receptor (P25021 whole entry): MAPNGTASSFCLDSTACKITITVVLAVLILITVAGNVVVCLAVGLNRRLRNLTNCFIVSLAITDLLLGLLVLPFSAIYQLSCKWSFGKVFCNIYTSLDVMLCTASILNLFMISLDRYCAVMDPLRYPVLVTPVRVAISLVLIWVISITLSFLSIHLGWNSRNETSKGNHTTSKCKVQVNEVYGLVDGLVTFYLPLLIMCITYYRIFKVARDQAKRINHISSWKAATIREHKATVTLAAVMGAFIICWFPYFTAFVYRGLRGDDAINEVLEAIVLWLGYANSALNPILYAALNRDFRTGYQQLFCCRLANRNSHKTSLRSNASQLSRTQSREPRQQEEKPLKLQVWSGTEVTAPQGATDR

Compound `COc1ccc2c(c1)c(CC(=O)OCC(=O)O)c(C)n2C(=O)c1ccc(Cl)cc1` [ACEMETACIN] has an AC50 [1] greater than 30 µM.
In the case of `COc1ccc2cccc(CCNC(C)=O)c2c1` [AGOMELATINE], the AC50 [2] was greater than 30 µM, the AC50 [3] was greater than 30 µM and the AC50 [4] was greater than 30 µM. For the same compound, the AC50 [5] was greater than 30 µM, the AC50 [6] was greater than 30 µM and the AC50 [7] was greater than 10 µM. The AC50 [8] was greater than 10 µM.
For `NC(CO)C(=O)NNCc1ccc(O)c(O)c1O` (centres undefined) [BENSERAZIDE], the AC50 [2] was greater than 30 µM, the AC50 [3] was greater than 30 µM and the AC50 [4] was greater than 30 µM. It also gave an AC50 [5] greater than 30 µM, an AC50 [6] greater than 30 µM and an AC50 [7] greater than 10 µM. The AC50 [8] was greater than 10 µM.
`CCCCN1CCCCC1C(=O)Nc1c(C)cccc1C` (centres undefined) [BUPIVACAINE] gave an AC50 [1] greater than 30 µM.
Compound `CCC(C(=O)O)c1ccc(CC(C)C)cc1` (centres undefined) [BUTIBUFEN] has an AC50 [1] greater than 30 µM.
For `CN(C)C(=O)OC1N=C(c2ccccc2)c2cc(Cl)ccc2N(C)C1=O` (centres undefined) [CAMAZEPAM], the AC50 [2] was greater than 30 µM, the AC50 [3] was greater than 30 µM and the AC50 [4] was greater than 30 µM. For the same compound, the AC50 [5] was greater than 30 µM, the AC50 [6] was greater than 30 µM and the AC50 [7] was greater than 10 µM. It also gave an AC50 [8] greater than 10 µM.
`CCOc1cc(N)c([N+](=O)[O-])cc1C(=O)NC1CCN(CC2CC=CCC2)CC1` (centres undefined) [CINITAPRIDE] showed an AC50 [1] greater than 30 µM.
With `CC(C)(Oc1ccc(C2CC2(Cl)Cl)cc1)C(=O)O` (centres undefined) [CIPROFIBRATE] the AC50 [1] was greater than 30 µM.
`COC(=O)[C@H]1[C@@H](OC(=O)c2ccccc2)C[C@@H]2CC[C@H]1N2C` [COCAINE] showed an AC50 [1] greater than 30 µM.
`[H]/N=C(/N)c1ccc(NCc2nc3cc(C(=O)N(CCC(=O)O)c4ccccn4)ccc3n2C)cc1` [DABIGATRAN] showed an AC50 [1] greater than 30 µM and an AC50 [9] greater than 30 µM.
In the case of `CC(=O)O[C@@]12CO[C@@H]1C[C@H](O)[C@@]1(C)C(=O)[C@H](O)C3=C(C)[C@@H](OC(=O)[C@H](O)[C@@H](NC(=O)OC(C)(C)C)c4ccccc4)C[C@@](O)([C@@H](OC(=O)c4ccccc4)[C@H]21)C3(C)C` [DOCETAXEL ANHYDROUS], the AC50 [2] was greater than 30 µM.
`C#CC1(OC(N)=O)CCCCC1` [ETHINAMATE] was tested, and the AC50 [2] was greater than 10 µM.
`O=C1CN=C(c2ccccc2)c2cc(Cl)ccc2N1CC(F)(F)F` [HALAZEPAM] was tested, and the AC50 [1] was greater than 30 µM and the AC50 [9] was greater than 30 µM.
For `CCC1(C2=CCCCCC2)C(=O)NC(=O)NC1=O` [HEPTABARBITAL], the AC50 [2] was greater than 10 µM.
Work on `CCCCCN(C)CCC(O)(P(=O)(O)O)P(=O)(O)O` [IBANDRONIC ACID] yielded an AC50 [1] greater than 30 µM, an AC50 [2] greater than 30 µM and an AC50 [3] greater than 30 µM. For the same compound, the AC50 [4] was greater than 30 µM, the AC50 [5] was greater than 30 µM and the AC50 [6] was greater than 30 µM. For the same compound, the AC50 [7] was greater than 10 µM and the AC50 [8] was greater than 10 µM.
`C1=Cc2cccc(OCC3CNCCO3)c2C1` (centres undefined) [INDELOXAZINE] was tested, and the AC50 [1] was greater than 30 µM.
Work on `COC(=O)C1=C(C)NC(C)=C(C(=O)OC(C)C)C1c1cccc2nonc12` (centres undefined) [ISRADIPINE] yielded an AC50 [2] greater than 30 µM.
Work on `CN1CC[C@]23CCCC[C@H]2[C@H]1Cc1ccc(O)cc13` [LEVORPHANOL] yielded an AC50 [2] greater than 10 µM and an AC50 [8] of 19 µM.
`CCN1CCC[C@H]1CNC(=O)c1cc(S(N)(=O)=O)ccc1OC` [LEVOSULPIRIDE] gave an AC50 [2] greater than 30 µM and an AC50 [8] greater than 10 µM.
`CC1=CC(=O)c2ccccc2C1=O` [MENADIONE] showed an AC50 [2] greater than 30 µM.
`O=C(OCCN1CCOCC1)c1cccnc1Nc1cccc(C(F)(F)F)c1` [MORNIFLUMATE] showed an AC50 [1] greater than 30 µM.
`COc1c(C)c2c(c(O)c1C/C=C(\C)CCC(=O)OCCN1CCOCC1)C(=O)OC2` [MYCOPHENOLATE MOFETIL] was tested, and the AC50 [1] was greater than 30 µM.
For `CCCCCCC(C)(C)c1cc(O)c2c(c1)OC(C)(C)C1CCC(=O)CC21` (centres undefined) [NABILONE], the AC50 [1] was greater than 30 µM and the AC50 [9] was greater than 30 µM.
In the case of `CN1CCC2=C(C1)C(c1ccccc1)c1ccccc12` (centres undefined) [PHENINDAMINE], the AC50 [2] was greater than 30 µM.
Work on `Cc1nc2ccc(CN(C)c3ccc(C(=O)N[C@@H](CCC(=O)O)C(=O)O)s3)cc2c(=O)[nH]1` [RALTITREXED] yielded an AC50 [1] greater than 30 µM.
`C#CCN[C@@H]1CCc2ccccc21` [RASAGILINE] was tested, and the AC50 [2] was greater than 30 µM.
`O=C1NCCN1CCN1CCC(c2cn(-c3ccc(F)cc3)c3ccc(Cl)cc23)CC1` [SERTINDOLE] gave an AC50 [1] greater than 30 µM.
With `Cc1c(C(=O)Nc2ccc(N3C[C@@H](C)O[C@@H](C)C3)nc2)cccc1-c1ccc(OC(F)(F)F)cc1` [SONIDEGIB] the AC50 [2] was greater than 30 µM, the AC50 [3] was greater than 30 µM and the AC50 [4] was greater than 30 µM. It also gave an AC50 [5] greater than 30 µM, an AC50 [6] greater than 30 µM and an AC50 [7] greater than 10 µM. For the same compound, the AC50 [8] was greater than 10 µM.
`CN[C@@H]1[C@H](O)[C@H](NC)[C@H]2O[C@@]3(O)C(=O)C[C@@H](C)O[C@H]3O[C@@H]2[C@H]1O` [SPECTINOMYCIN] gave an AC50 [2] greater than 10 µM.
In the case of `COc1ccc(C(=O)N2CCN(c3ccc4c(c3)CCC(=O)N4)CC2)cc1OC` [VESNARINONE], the AC50 [1] was 2.5 µM and the AC50 [9] was greater than 30 µM.
Work on `CC[C@]1(O)C[C@@H]2CN(CCc3c([nH]c4ccccc34)[C@@](C(=O)OC)(c3cc4c(cc3OC)N(C)[C@H]3[C@@](O)(C(N)=O)[C@H](O)[C@]5(CC)C=CCN6CC[C@]43[C@@H]65)C2)C1` [VINDESINE] yielded an AC50 [1] greater than 30 µM.
Compound TOCOFERSOLAN has an AC50 [1] greater than 30 µM.
